Assay results taken from US11267832B2, “Mn(II)-based sensors to detect zinc in vivo with MRI” (The Board of Regents of the University of Texas System, priority 2018, dated 2022).

Columns and labels:
[1] = tested on: Male C57B16 mice; assay: Tissue ICP-AES biodistribution of Mn; assay type: in vivo
Method: Tissue ICP-AES: Biodistribution of 5 was measured in tissues 15 and 90 min after injection of (1) 0.07 mmol/kg 5 plus 2.2 mmol/kg D-glucose, (2) 0.07 mmol/kg 5 plus saline, and (3) 0.035 mmol/kg MnCl plus 2.2 mmol/kg D-glucose into male C57B16 mice. The tissue weights were recorded and digested in aqua regia for 24 hours, the digested tissue was heated to 120° C. until evaporated and re-suspended in 0.5 M HCl. For ICP-AES, Mn, Fe, and Zn concentrations were obtained by comparing to a known metal standard.

[2] = tested on: Male C57B16 mice; assay: In vivo T1-weighted MRI of glucose-stimulated zinc secretion
Method: In Vivo MRI: Male C57B16 mice were imaged at 4.7 T and 9.4 T using Varian/Agilent scanners. Mice were anesthetized with 2-5% isofluorane/oxygen mixture and their body temperature was maintained at 37° C. using heated airflow. Two ge3d T1-weighted scans were obtained as a baseline (TE/TR=1.69/3.35 ms, Average=4, θ=20°). Mice then received 0.07 mmol/kg 5 i.v. plus 2.2 mmol/kg D-Glucose i.p. and sequential 3d T1-weighted scans were obtained for 90 minutes until clearance of the agent was evident. Images were analyzed using ImageJ, organs of interest were identified, and ROIs were measured and normalized to muscle ROIs within the same slice and time point. The change in MR signal intensity is reported as a percentage compared to pre-injection scans.

[3] = Relaxometry (T1 and T2 at 1.5 T); assay type: physicochemical; conditions: 37° C.
Method: Relaxometry: Varying concentrations of 5 (0-1 mM) were incubated with 2 mM ZnCl2, and 0.6 mM human serum albumin (HSA) at 37° C. T1 and T2 measurements were obtained at 1.5 T using a Bruker relaxometer. T1 was obtained by an inversion recovery sequence (IR, first pulse=10 ms, TR=10 s, TI=10-2500 ms), and T2 by a Carr-Prucell-Meiboom-Gill (CPMG, TE/TR=5/10000 ms, NE=700).

[4] = Clearance route and integrity by LC-MS of urine and bile; assay type: in vivo
[5] = 0.035 mmol/kg i.v. plus 2.2 mmol/kg D-glucose i.p.

Compound	Mn accumulation in the heart [1, 5]	excretion route (tissue biodistribution of Mn) [1, 5]	MRI signal enhancement in organs ([2]; 0.07 mmol/kg i.v. plus D-glucose 2.2 mmol/kg i.p., 4 minutes post injection, 9.4 T)	MRI signal enhancement in organs ([2]; control, D-glucose not co-injected)	Mn accumulation in the heart ([1]; 0.07 mmol/kg i.v. plus 2.2 mmol/kg D-glucose i.p.)	Mn content in tissues (biodistribution) ([1]; 15 minutes post-injection, 0.07 mmol/kg i.v. plus 2.2 mmol/kg D-glucose i.p.)	Mn content in tissues (biodistribution) ([1]; 90 minutes post-injection, 0.07 mmol/kg i.v. plus 2.2 mmol/kg D-glucose i.p.)	longitudinal relaxivity r1 ([3]; "off" configuration (no Zn(II)/HSA)) [mM⁻¹ s⁻¹]	longitudinal relaxivity r1 ([3]; "on" configuration bound to Zn^2+ and HSA (2 mM ZnCl2, 0.6 mM HSA)) [mM⁻¹ s⁻¹]	integrity during hepatobiliary clearance ([4]; LC-MS of bile)	integrity after renal filtration ([4]; LC-MS of urine)
[Cl][Mn][Cl] [MnCl2, reference compound]	Accumulation in the heart	excreted renally and more overwhelmingly via the hepatobiliary system	–	–	–	–	–	–	–	–	–
Mn—N-(6-methyl)-(2-(bis(pyridin-2-ylmethyl)amino)ethyl)-nicotinamido-N,N′ N′-trans-1,2-cyclohexylenediamine-triacetate [Compound 5]	–	–	Enhancement in the pancreas, prostate, kidneys, and liver	marginal enhancement in the prostate and pancreas	no accumulation in the heart	found primarily in the kidneys, liver, pancreas, and prostate	greatly diminished in kidney and liver tissues but accumulated in the spleen and in the prostate	3.5	14.1	degraded during hepatobiliary clearance	excreted as an intact complex after renal filtration
